Organism: Rattus norvegicus
Assay: DrugMatrix - Regimen: Daily Repeat
Assay type: toxicity, organism-based, Sprague-Dawley
Design: regimen Daily Repeat, gender Male, age 6-8 weeks
Conditions: in vivo, po, route oral GAVAGE, vehicle .5 % CMC; for ABSOLUTE BASOPHIL / ABSOLUTE EOSINOPHIL / ABSOLUTE LYMPHOCYTE / ABSOLUTE MONOCYTE / ABSOLUTE SEGMENTED NEUTROPHIL / BASOPHIL / EOSINOPHIL / ERYTHROCYTE COUNT / HEMATOCRIT / HEMOGLOBIN / LEUKOCYTE COUNT / LYMPHOCYTE / MEAN CORPUSCULAR HEMOGLOBIN / MEAN CORPUSCULAR HEMOGLOBIN CONCENTRATION / MEAN CORPUSCULAR VOLUME / MONOCYTE / NEUTROPHIL / NUCLEATED RED BLOOD CELLS / PLATELET COUNT: tissue Blood; for ALANINE AMINOTRANSFERASE / ALBUMIN / ALKALINE PHOSPHATASE / ASPARTATE AMINOTRANSFERASE / BLOOD UREA NITROGEN / CARBON DIOXIDE / CHLORIDE / CHOLESTEROL / CREATINE PHOSPHOKINASE / CREATININE / GLUCOSE / LACTATE DEHYDROGENASE / LIPASE / PHOSPHORUS / POTASSIUM / SODIUM / TOTAL BILIRUBIN / TOTAL PROTEIN / URIC ACID: tissue Plasma
[1] = 25 mg/kg, 120 h, dose level Low, time 5 day
[2] = 1400 mg/kg, 72 h, dose level High, time 3 day
[3] = 1400 mg/kg, 120 h, dose level High, time 5 day

For `C[C@](O)(CS(=O)(=O)c1ccc(F)cc1)C(=O)Nc1ccc(C#N)c(C(F)(F)F)c1` [(R)-BICALUTAMIDE], the “ABSOLUTE BASOPHIL” value [1] was 0 CELLS/uL, the “ABSOLUTE EOSINOPHIL” value [1] was 40.67 CELLS/uL and the “ABSOLUTE LYMPHOCYTE” value [1] was 7260.33 CELLS/uL. The “ABSOLUTE MONOCYTE” value [1] was 84 CELLS/uL, the “ABSOLUTE SEGMENTED NEUTROPHIL” value [1] was 381.67 CELLS/uL and the BASOPHIL [1] was 0%. For the same molecule, the EOSINOPHIL [1] was 0.67%, the “ERYTHROCYTE COUNT” value [1] was 5.41 x10E6/uL and the HEMATOCRIT [1] was 34.23%. For the same molecule, the HEMOGLOBIN [1] was 13.2 G/DL, the “LEUKOCYTE COUNT” value [1] was 7.77 x10E3/uL and the LYMPHOCYTE [1] was 92.33%. For the same molecule, the “MEAN CORPUSCULAR HEMOGLOBIN” value [1] was 24.4 pg, the “MEAN CORPUSCULAR HEMOGLOBIN CONCENTRATION” value [1] was 38.6 G/DL and the “MEAN CORPUSCULAR VOLUME” value [1] was 63.13 fL. The MONOCYTE [1] was 1.33%, the NEUTROPHIL [1] was 5.67% and the “NUCLEATED RED BLOOD CELLS” value [1] was 0 /100WBC. The “PLATELET COUNT” value [1] was 1128.67 x10E3/uL, the “ALANINE AMINOTRANSFERASE” value [1] was 51.67 u/L and the ALBUMIN [1] was 4.37 G/DL. The “ALKALINE PHOSPHATASE” value [1] was 358.33 u/L, the “ASPARTATE AMINOTRANSFERASE” value [1] was 82.33 u/L and the “BLOOD UREA NITROGEN” value [1] was 14.67 mg/dL. For the same molecule, the “CARBON DIOXIDE” value [1] was 26.67 mmol/L, the CHLORIDE [1] was 103.67 MEQ/L and the CHOLESTEROL [1] was 67.33 mg/dL. For the same molecule, the “CREATINE PHOSPHOKINASE” value [1] was 179.33 u/L, the CREATININE [1] was 0.2 mg/dL and the GLUCOSE [1] was 149.33 mg/dL. For the same molecule, the “LACTATE DEHYDROGENASE” value [1] was 119.67 u/L, the LIPASE [1] was 10 u/L and the PHOSPHORUS [1] was 11.83 mg/dL. The POTASSIUM [1] was 6.23 MEQ/L, the SODIUM [1] was 148.07 MEQ/L and the “TOTAL BILIRUBIN” value [1] was 0.2 mg/dL. The “TOTAL PROTEIN” value [1] was 6.5 G/DL, the “URIC ACID” value [1] was 1.37 mg/dL and the “ABSOLUTE BASOPHIL” value [2] was 0 CELLS/uL. The “ABSOLUTE EOSINOPHIL” value [2] was 0 CELLS/uL, the “ABSOLUTE LYMPHOCYTE” value [2] was 11798 CELLS/uL and the “ABSOLUTE MONOCYTE” value [2] was 169.33 CELLS/uL. For the same molecule, the “ABSOLUTE SEGMENTED NEUTROPHIL” value [2] was 799.33 CELLS/uL, the BASOPHIL [2] was 0% and the EOSINOPHIL [2] was 0%. For the same molecule, the “ERYTHROCYTE COUNT” value [2] was 5.52 x10E6/uL, the HEMATOCRIT [2] was 36.3% and the HEMOGLOBIN [2] was 14.03 G/DL. For the same molecule, the “LEUKOCYTE COUNT” value [2] was 12.77 x10E3/uL, the LYMPHOCYTE [2] was 92.67% and the “MEAN CORPUSCULAR HEMOGLOBIN” value [2] was 25.5 pg. The “MEAN CORPUSCULAR HEMOGLOBIN CONCENTRATION” value [2] was 38.63 G/DL, the “MEAN CORPUSCULAR VOLUME” value [2] was 65.97 fL and the MONOCYTE [2] was 1.33%. The NEUTROPHIL [2] was 6%, the “NUCLEATED RED BLOOD CELLS” value [2] was 0 /100WBC and the “PLATELET COUNT” value [2] was 1068 x10E3/uL. For the same molecule, the “ALANINE AMINOTRANSFERASE” value [2] was 48.67 u/L, the ALBUMIN [2] was 4.33 G/DL and the “ALKALINE PHOSPHATASE” value [2] was 367.67 u/L. For the same molecule, the “ASPARTATE AMINOTRANSFERASE” value [2] was 67 u/L, the “BLOOD UREA NITROGEN” value [2] was 16.67 mg/dL and the “CARBON DIOXIDE” value [2] was 23 mmol/L. The CHLORIDE [2] was 102 MEQ/L, the CHOLESTEROL [2] was 87.33 mg/dL and the “CREATINE PHOSPHOKINASE” value [2] was 182.33 u/L. For the same molecule, the CREATININE [2] was 0.19 mg/dL, the GLUCOSE [2] was 155.33 mg/dL and the “LACTATE DEHYDROGENASE” value [2] was 84.67 u/L. It also gave an LIPASE [2] of 11 u/L, a PHOSPHORUS [2] of 11.8 mg/dL and a POTASSIUM [2] of 7.17 MEQ/L. For the same molecule, the SODIUM [2] was 143.37 MEQ/L, the “TOTAL BILIRUBIN” value [2] was 0.2 mg/dL and the “TOTAL PROTEIN” value [2] was 6.23 G/DL. For the same molecule, the “URIC ACID” value [2] was 1.57 mg/dL, the “ABSOLUTE BASOPHIL” value [3] was 0 CELLS/uL and the “ABSOLUTE EOSINOPHIL” value [3] was 139 CELLS/uL. For the same molecule, the “ABSOLUTE LYMPHOCYTE” value [3] was 14390.33 CELLS/uL, the “ABSOLUTE MONOCYTE” value [3] was 36 CELLS/uL and the “ABSOLUTE SEGMENTED NEUTROPHIL” value [3] was 934.67 CELLS/uL. For the same molecule, the BASOPHIL [3] was 0%, the EOSINOPHIL [3] was 1% and the “ERYTHROCYTE COUNT” value [3] was 5.54 x10E6/uL. For the same molecule, the HEMATOCRIT [3] was 34.93%, the HEMOGLOBIN [3] was 13.77 G/DL and the “LEUKOCYTE COUNT” value [3] was 15.5 x10E3/uL. The LYMPHOCYTE [3] was 92.67%, the “MEAN CORPUSCULAR HEMOGLOBIN” value [3] was 24.87 pg and the “MEAN CORPUSCULAR HEMOGLOBIN CONCENTRATION” value [3] was 39.4 G/DL. For the same molecule, the “MEAN CORPUSCULAR VOLUME” value [3] was 63.03 fL, the MONOCYTE [3] was 0.33% and the NEUTROPHIL [3] was 6%. For the same molecule, the “NUCLEATED RED BLOOD CELLS” value [3] was 0.33 /100WBC, the “PLATELET COUNT” value [3] was 1189.67 x10E3/uL and the “ALANINE AMINOTRANSFERASE” value [3] was 51.33 u/L. For the same molecule, the ALBUMIN [3] was 4.37 G/DL, the “ALKALINE PHOSPHATASE” value [3] was 367.67 u/L and the “ASPARTATE AMINOTRANSFERASE” value [3] was 74.33 u/L. The “BLOOD UREA NITROGEN” value [3] was 16.67 mg/dL, the “CARBON DIOXIDE” value [3] was 27.33 mmol/L and the CHLORIDE [3] was 102 MEQ/L. The CHOLESTEROL [3] was 87.67 mg/dL, the “CREATINE PHOSPHOKINASE” value [3] was 121.67 u/L and the CREATININE [3] was 0.22 mg/dL. For the same molecule, the GLUCOSE [3] was 150.33 mg/dL, the “LACTATE DEHYDROGENASE” value [3] was 70.67 u/L and the LIPASE [3] was 10 u/L. It also gave a PHOSPHORUS [3] of 12.73 mg/dL, a POTASSIUM [3] of 6.81 MEQ/L and an SODIUM [3] of 146.27 MEQ/L. The “TOTAL BILIRUBIN” value [3] was 0.2 mg/dL, the “TOTAL PROTEIN” value [3] was 6.3 G/DL and the “URIC ACID” value [3] was 1.8 mg/dL.

Source: ChEMBL document CHEMBL3885881, “DrugMatrix”
